Test results as given in PubChem BioAssay (NCI).
“And” between values parts separate entries of the source, which are not always exact repeats. Equal entries are not always repeated.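 Protocol summary: plate cells (96-well), add compound at 5 concentrations, incubate 48 h, interpolate endpoints linearly. Abbreviation: GI50, concentration required for 50% inhibition of growth. The concentration for full growth arrest is given as TGI.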

Assays:
Assay in all cases: NCI tumour cell line growth inhibition, 48 h
MDA-N = tested on: MDA-N
DLD-1 colon = tested on: DLD-1 colon
P388 leukemia = tested on: P388 leukemia
LXFL 529 NSCLC = tested on: LXFL 529 NSCLC
KM20L2 colon = tested on: KM20L2 colon
XF 498 CNS = tested on: XF 498 CNS
SNB-78 CNS = tested on: SNB-78 CNS
HOP-18 NSCLC = tested on: HOP-18 NSCLC
SN12K1 renal = tested on: SN12K1 renal
M19-MEL melanoma = tested on: M19-MEL melanoma
RXF-631 renal = tested on: RXF-631 renal

OCC1OC2OC3C(CO)OC(OC4C(CO)OC(OC5C(CO)OC(OC6C(CO)OC(OC7C(CO)OC(OC1C(O)C2O)C(O)C7O)C(O)C6O)C(O)C5O)C(O)C4O)C(O)C3O (configuration not stated) (tested in a mixture with another compound)
TGI (MDA-N): 39.9 µM

CC(C)NC(=O)OCc1c(COC(=O)NC(C)C)c(-c2ccc(Cl)c(Cl)c2)n2c1CCC2
TGI (DLD-1 colon): > 72.3 µM | TGI (P388 leukemia): > 100 µM | TGI (LXFL 529 NSCLC): 16.3 µM | TGI (KM20L2 colon): 58.7 µM | TGI (XF 498 CNS): > 62.1 µM | TGI (SNB-78 CNS): 41.9 µM | TGI (HOP-18 NSCLC): > 83.9 µM | TGI (SN12K1 renal): > 100 µM | TGI (M19-MEL melanoma): 61.3 µM

COc1ccc(-c2cc(-c3cc(C)ccc3O)[nH]c(=O)n2)cc1
TGI (DLD-1 colon): > 100 µM | TGI (LXFL 529 NSCLC): > 100 µM | TGI (KM20L2 colon): > 100 µM | TGI (SNB-78 CNS): > 100 µM | TGI (HOP-18 NSCLC): > 100 µM | TGI (RXF-631 renal): > 100 µM | TGI (M19-MEL melanoma): > 100 µM

O=C1OC(c2ccccc2)=N/C1=C\c1cc(Cl)ccc1Cl
TGI (DLD-1 colon): > 100 µM | TGI (LXFL 529 NSCLC): 86 µM | TGI (KM20L2 colon): > 100 µM | TGI (SNB-78 CNS): > 100 µM | TGI (HOP-18 NSCLC): > 100 µM | TGI (RXF-631 renal): > 100 µM | TGI (M19-MEL melanoma): > 100 µM

COC1OC(COS(=O)(=O)c2ccc(C)cc2)C(O)C(OS(=O)(=O)c2ccc(C)cc2)C1OS(=O)(=O)c1ccc(C)cc1 (configuration not stated)
TGI (DLD-1 colon): > 100 µM | TGI (LXFL 529 NSCLC): > 100 µM | TGI (KM20L2 colon): > 100 µM | TGI (SNB-78 CNS): > 100 µM | TGI (HOP-18 NSCLC): > 100 µM | TGI (RXF-631 renal): > 100 µM | TGI (M19-MEL melanoma): > 100 µM

CCOC(=O)C(=O)Nc1c(C)cccc1C(C)C
TGI (DLD-1 colon): > 100 µM | TGI (LXFL 529 NSCLC): > 100 µM | TGI (KM20L2 colon): > 100 µM | TGI (XF 498 CNS): > 100 µM | TGI (SNB-78 CNS): > 100 µM | TGI (HOP-18 NSCLC): > 100 µM | TGI (RXF-631 renal): > 100 µM | TGI (M19-MEL melanoma): > 100 µM

COC(=O)CS(=O)c1ccccc1 (configuration not stated)
TGI (DLD-1 colon): > 100 µM | TGI (LXFL 529 NSCLC): > 100 µM | TGI (XF 498 CNS): > 100 µM | TGI (SNB-78 CNS): > 100 µM | TGI (M19-MEL melanoma): > 100 µM

O=C(O)c1cccc2cccc(C(=O)O)c12.[Hg]
GI50 (DLD-1 colon): 8.42 µM | TGI (DLD-1 colon): 23 µM | GI50 (LXFL 529 NSCLC): 14.6 µM | TGI (LXFL 529 NSCLC): 28.1 µM | GI50 (KM20L2 colon): > 100 µM | TGI (KM20L2 colon): > 100 µM | GI50 (HOP-18 NSCLC): 18.6 µM | TGI (HOP-18 NSCLC): 35.3 µM | GI50 (M19-MEL melanoma): 10.4 µM | TGI (M19-MEL melanoma): 23.3 µM

COC(=O)C1=C(CS(=O)c2ccc([N+](=O)[O-])cc2[N+](=O)[O-])ON(C)C1c1ccccc1 (configuration not stated)
TGI (DLD-1 colon): > 100 µM | TGI (LXFL 529 NSCLC): > 92.8 µM | TGI (KM20L2 colon): > 72.6 µM | TGI (XF 498 CNS): > 100 µM | TGI (SNB-78 CNS): > 96.5 µM | TGI (HOP-18 NSCLC): > 89.7 µM | TGI (RXF-631 renal): > 100 µM | TGI (M19-MEL melanoma): > 100 µM

OCC1OC(n2cnc3c2NC=NC[C@H]3O)CC1O (some centres not stated)
GI50 (DLD-1 colon): > 588 µM | TGI (DLD-1 colon): 500 µM and > 588 µM | TGI (P388 leukemia): 500 µM | GI50 (LXFL 529 NSCLC): > 588 µM | TGI (LXFL 529 NSCLC): > 588 µM | GI50 (KM20L2 colon): > 588 µM | TGI (KM20L2 colon): > 588 µM | TGI (XF 498 CNS): 498 µM | GI50 (SNB-78 CNS): > 588 µM | TGI (SNB-78 CNS): 500 µM and > 588 µM | TGI (MDA-N): > 500 µM | GI50 (HOP-18 NSCLC): 284 µM and > 588 µM | TGI (HOP-18 NSCLC): 308 µM and > 588 µM | GI50 (RXF-631 renal): 158 µM and > 588 µM | TGI (RXF-631 renal): 500 µM and > 588 µM | TGI (SN12K1 renal): 467 µM | GI50 (M19-MEL melanoma): > 588 µM | TGI (M19-MEL melanoma): 460 µM and > 588 µM

COC(=O)C(Cc1ccccc1)NC(=O)Cn1ccnc1[N+](=O)[O-] (configuration not stated)
TGI (LXFL 529 NSCLC): > 100 µM | TGI (KM20L2 colon): > 100 µM | TGI (XF 498 CNS): > 100 µM | TGI (HOP-18 NSCLC): > 100 µM | TGI (RXF-631 renal): > 100 µM | TGI (M19-MEL melanoma): > 100 µM

O=C1c2cc([N+](=O)[O-])cc3cc([N+](=O)[O-])cc(c23)C(=O)N1CCCNCCNCCCN1C(=O)c2cc([N+](=O)[O-])cc3cc([N+](=O)[O-])cc(c23)C1=O
TGI (DLD-1 colon): 3.24 µM | TGI (LXFL 529 NSCLC): 0.326 µM | TGI (KM20L2 colon): 5.09 µM | TGI (XF 498 CNS): 0.436 µM | TGI (SNB-78 CNS): 1.14 µM | TGI (HOP-18 NSCLC): 5.63 µM | TGI (M19-MEL melanoma): 0.752 µM

CCOC(=O)N[C@@H]1C2CC(=O)C(O2)[C@@H]1OC (some centres not stated)
TGI (DLD-1 colon): > 100 µM | TGI (KM20L2 colon): > 100 µM | TGI (SNB-78 CNS): > 100 µM | TGI (HOP-18 NSCLC): > 100 µM | TGI (M19-MEL melanoma): > 100 µM

O=C(O)CP(=O)(O)O
TGI (MDA-N): > 100 µM

NC(=O)Nc1c([N+](=O)[O-])cc(C(F)(F)F)cc1[N+](=O)[O-]
TGI (LXFL 529 NSCLC): > 100 µM | TGI (KM20L2 colon): 80.6 µM | TGI (XF 498 CNS): > 100 µM | TGI (SNB-78 CNS): > 100 µM | TGI (RXF-631 renal): > 100 µM

NCCCNCCSSC/C=C\CSSCCNCCCN
TGI (DLD-1 colon): > 100 µM | TGI (LXFL 529 NSCLC): > 100 µM and 88.4 µM | GI50 (KM20L2 colon): > 100 µM and 38.9 µM | TGI (KM20L2 colon): > 100 µM | TGI (XF 498 CNS): > 100 µM | GI50 (SNB-78 CNS): 55 µM and 24.8 µM | TGI (SNB-78 CNS): > 100 µM | TGI (HOP-18 NSCLC): > 100 µM | TGI (M19-MEL melanoma): > 100 µM

Cc1ccc(C(=O)C#Cc2c[nH]c(=O)[nH]c2=O)cc1
TGI (DLD-1 colon): 22.1 µM | TGI (SNB-78 CNS): 28.5 µM | TGI (HOP-18 NSCLC): 32.6 µM | TGI (M19-MEL melanoma): 36.5 µM

CSc1nc(C)c(Br)c(=O)n1C1OC(COC(C)=O)C(OC(C)=O)C(OC(C)=O)C1OC(C)=O (configuration not stated)
TGI (DLD-1 colon): > 100 µM | GI50 (LXFL 529 NSCLC): > 100 µM and 32.1 µM | TGI (LXFL 529 NSCLC): > 100 µM and 76.4 µM | TGI (KM20L2 colon): > 100 µM | TGI (XF 498 CNS): 43.6 µM | GI50 (SNB-78 CNS): 17 µM and 63.6 µM | TGI (SNB-78 CNS): 64.8 µM and > 100 µM | TGI (MDA-N): > 100 µM | TGI (HOP-18 NSCLC): > 100 µM | GI50 (M19-MEL melanoma): > 100 µM and 44.6 µM | TGI (M19-MEL melanoma): > 100 µM

Brc1ccccc1C=NC12CC3CC(CC(C3)C1)C2
TGI (DLD-1 colon): > 100 µM | TGI (LXFL 529 NSCLC): > 100 µM | TGI (KM20L2 colon): > 100 µM | TGI (XF 498 CNS): > 100 µM | TGI (SNB-78 CNS): > 100 µM | TGI (MDA-N): > 73.8 µM | TGI (HOP-18 NSCLC): > 100 µM | TGI (RXF-631 renal): > 100 µM | TGI (M19-MEL melanoma): > 100 µM
